Laboratory results published in patent publication US6352630B1, “Electrochemical system for determining blood coagulation time” (Asulab S.A., priority 1999, dated 2002).

Target: T1, thrombin enzyme (Homo sapiens, UniProt P00734)
T1 construct: from tissue; host or cells: whole blood (drop of blood, 10 µl)
Test: specificity of the specific reagent vis-à-vis the thrombin enzyme, progressive inhibition by r-hirudin
Type: biochemical
Conditions: whole blood, thrombin inhibited by increasing r-hirudin
Method: In the experiments reported hereinafter, potentiostatic measurements were performed by chronoamperometry by means of a potentiostat PGP 201 connected to the Vm1 software of Radiometer (Copenhagen) allowing the following conditions to be obtained:
The surface of the working electrode of the sensor used is 0.035 cm^2 and the sample quantity, drop of blood, or reference solution is 10 μl. the recording of measurements starts 10 seconds after the sample is deposited. The oligopeptide used, hereinafter designated according to use by <>, selected from those indicated previously, is:
Given that whole blood contains extremely numerous constituents, the present experiment allows it to be shown that only the thrombin enzyme is capable of cutting the specific reagent substrate. The experiment is performed in the optimisation conditions defined by experiment 3 (namely PC/PS in the ratio 25/75, Hepes buffer and lyophilisation) starting with a dilution in equal parts of blood and buffer solution and progressively inhibiting the thrombin enzyme by increasing concentrations of r-hirudin (r-hirudin 2000 ATU/bulb, available from Pentapharm AG, Basel, Switzerland) which replace the buffer solution, preferably having checked that the factor Xa is not inhibited by r-hirudin. […]

“Tos-Gly-Pro-Arg-3-chloro-4-hydroxyanilide, 2HCl [substrate]” was tested, and the “cutting of the substrate, selectivity” value was “selectively cut off by thrombin”.
